Each block holds one molecule with its values, some of them ahead of it.
Key:
Assay type in all cases: physicochemical
[1] = Dynamic vapor sorption (DVS) hygroscopicity; settings: 25° C.
Procedure: DVS measurements were performed with a SMS—DVS Intrinsic. The sample size was about 50 mg, accurately weighed. The measurement was performed at 25° C., the relative humidity (RH) range investigated was 40-90-0-90% RH with 10% RH steps. After each RH change, the mass of the sample was allowed to stabilize (waiting time 10 to 60 minutes, stabilization criterion ≤0.002 g for 10 minutes). The hygroscopicity of the sample was calculated as follows: [formula] • where: • W1: weight of sample at the start of the experiment (25° C. and 40% RH) • W2: weight of sample at 25° C. and 80% RH in the first sorption cycle High Pressure Liquid Chromatography (HPLC)

[2] = Exposure to moist air (RH 95%, room temperature), XRPD before/after; settings: 15-20 hours at 95% humidity
Procedure: FIG. 4 is a series of XRPD patterns, showing NaCDC Form A before (thick line) and after (thin line) 15 hours of exposure to RH 95% at room temperature. FIG. 8 is a series of XRPD patterns, showing NaCDC Form B before (thick line) and after (thin line) 15 hours of exposure to RH 95% at room temperature.

[3] = Intrinsic dissolution, USP rotating disk apparatus
Procedure: For the intrinsic dissolution studies, the following HPLC method was used: [table] Intrinsic dissolution profiles of NaCDC Form A and Form B were determined from a drug disk of constant surface area using a USP rotating disk apparatus in phosphate buffer (pH 7.4) at 37° C. […] A typical apparatus consisted of a punch and a die, whose base is attached to a surface plate. […] The punch was then inserted in the die cavity and the test material was compressed with a hydraulic press. A non-disintegrating compact of the material was formed in the die cavity with a single face of defined area exposed on the bottom of the die. The die assembly was then attached to a shaft with a holder and the surface plate was removed. The shaft holding the die assembly was positioned into the dissolution medium at a distance not less than 1.0 cm from the bottom of the vessel. In this procedure, fluid flow was generated by the rotation of the die. The amount of material dissolved was measured as a function of time. In particular, the cumulative amount dissolved at each time point was corrected for losses due to sampling. […] Method parameters are summarized below: [table]

[4] = Storage of screening solids at RT, XRPD after storage
Procedure: Form S2 was obtained from experiment VDS05 with EtOH after 12 days of diffusion at 50° C. […] The HPLC purity of the tested material was 92.1% at 212 nm. TG/DSC analysis of this material was consistent with that obtained from experiments SAS48, SDGR01, and SDGR07. XRPD analysis of this material is shown in FIG. 33, and the corresponding data summarized in Table S2: Form S8 was obtained in mixture with starting material ([…]) from experiment VDS12 with MEK after 12 days of diffusion at 50° C. […] The HPLC purity of the tested material was 93.7% at 212 nm. An XRPD spectrum of the material from experiment VDS12 is shown in FIG. 34A, as compared to NaCDC Form B, and the corresponding data are summarized in Table S8: The precipitate that formed in the water solution in the presence of acetone (as anti-solvent) was stored at RT for up to 3 weeks before it was subjected to thermal analysis. In this case, the majority of ASDS03 solid was dried at RT on filter paper up to 2 h and after that the recovered material was analyzed by XRPD. […] (Tonset) was observed. […] The precipitates that formed in the water solution in the presence of acetonitrile (as anti-solvent) from experiments ASDS04 and ASDS08 were stored at RT up to 24 days before being subjected to thermal analysis. In this case, the majority of solids from experiments ASDS04 and ASDS08 were dried at RT on filter paper for 1-2 h, and after that the recovered materials were analyzed by XRPD. […] The corresponding data for the initial material obtained from experiment […]) are summarized below: The precipitate that formed into the TFE solution in the presence of MTBE (as anti-solvent) was stored at RT for 22 days before being subjected to thermal analysis. In this case, the majority of the material from experiment ASDS19 was dried at RT on filter paper up to 2 h, and after that the recovered material was analyzed by XRPD. […] Considering that Form S12 was obtained as mixture with amorphous phase and with low crystallinity, there is a possibility that Form S12 is the same as Form S15. The XRPD data from experiment ASDS19 before storage for 22 days is summarized in Table S12, and the XRPD data from experiment ASDS19 after storage for 22 days is summarized in Table S15. The precipitate that formed into the TFE solution in the presence of DIPE (as anti-solvent) was stored at RT for 22 days before being subjected to thermal analysis. In this case, the majority of material obtained from experiment ASDS16 was dried at RT on filter paper up to 2 h, and after that, the recovered material was analyzed by XRPD. […] The precipitate that formed into the water solution in the presence of acetone (as anti-solvent) was stored at RT for 2 weeks before being subjected to thermal analysis. In this case, the majority of material obtained from experiment RAS11 was dried at RT on filter paper for 1-2 h, and after that the recovered material was analyzed by XRPD. […] The precipitate that formed into the TFE solution in the presence of iPrOAC (as anti-solvent) was stored at RT for 2 weeks before being subjected to thermal analysis. In this case, the majority of material from experiment RAS34 dried at RT on filter paper for 1-2 h, and after that the recovered material was analyzed by XRPD. […] The precipitate that formed into the TFE solution in the presence of EtOAc (as anti-solvent) was stored at RT for 2 weeks before being subjected to thermal analysis. In this case, the majority of material obtained from experiment RAS33 was dried at RT on filter paper for 1-2 h, and after that the recovered material was analyzed by XRPD. […] The precipitate that formed into the TFE solution in the presence of MTBE (as anti-solvent) was stored at RT for 2 weeks before being subjected to thermal analysis. In this case, the majority of the material obtained from experiment RAS36 that had been stored for 2 weeks was dried at RT on filter paper for 1-2 h, and after that the recovered material was analyzed by XRPD.

Compound: C[C@H](CCC(=O)[O-])[C@H]1CC[C@H]2[C@@H]3[C@H](O)C[C@@H]4C[C@H](O)CC[C@]4(C)[C@H]3CC[C@]12C.[Na+] [Form A, sodium chenodeoxycholate]
hygroscopicity by DVS [1]: hygroscopic
weight change in the first sorption cycle (DVS) ([1]; 40% RH to 80% RH): 14.1%
effect of exposure to moist air (XRPD) [2]: partial amorphization and loss of crystallinity
solid form after compression (XRPD) ([3]; 2 tons for 2 minutes): no change in solid form
IDR (intrinsic dissolution rate) ([3]; USP phosphate buffer pH 7.4, 37° C., 100 rpm, disk 0.5024 cm^2): 0.6959 mg · min^−1 · cm^−2

Compound: C[C@H](CCC(=O)[O-])[C@H]1CC[C@H]2[C@@H]3[C@H](O)C[C@@H]4C[C@H](O)CC[C@]4(C)[C@H]3CC[C@]12C.[Na+] [Form S1, sodium chenodeoxycholate]
XRPD form after storage ([4]; ASDS03 precipitate in water/acetone, stored at RT up to 3 weeks, dried on filter paper): transformed into Form S14
XRPD form after storage ([4]; RAS11 precipitate in water/acetone, stored at RT for 2 weeks): high tendency of amorphization

Compound: C[C@H](CCC(=O)[O-])[C@H]1CC[C@H]2[C@@H]3[C@H](O)C[C@@H]4C[C@H](O)CC[C@]4(C)[C@H]3CC[C@]12C.[Na+] [Form S2, sodium chenodeoxycholate]
form on storage ([4]; VDS05 material (EtOH vapor, 12 days, 50° C.), storage conditions at RT): remained stable

Compound: C[C@H](CCC(=O)[O-])[C@H]1CC[C@H]2[C@@H]3[C@H](O)C[C@@H]4C[C@H](O)CC[C@]4(C)[C@H]3CC[C@]12C.[Na+] [Form S3, sodium chenodeoxycholate]
XRPD form after storage ([4]; RAS34 precipitate in TFE/iPrOAc, stored at RT for 2 weeks): remained unchanged

Compound: C[C@H](CCC(=O)[O-])[C@H]1CC[C@H]2[C@@H]3[C@H](O)C[C@@H]4C[C@H](O)CC[C@]4(C)[C@H]3CC[C@]12C.[Na+] [Form S9-b, sodium chenodeoxycholate]
XRPD form after storage ([4]; ASDS08 precipitate in water/acetonitrile, stored at RT 23 days): transformed into a form similar to Form S9-a

Other lines, results leading:

XRPD form after storage ([4]; RAS33 precipitate in TFE/EtOAc, stored at RT for 2 weeks): transformed into Form S1
Compound: C[C@H](CCC(=O)[O-])[C@H]1CC[C@H]2[C@@H]3[C@H](O)C[C@@H]4C[C@H](O)CC[C@]4(C)[C@H]3CC[C@]12C.[Na+] [Form S6, sodium chenodeoxycholate]

form on storage ([4]; VDS12 material (MEK vapor, 50° C.), mixture with NaCDC Form B, storage at RT): remained stable
Compound: C[C@H](CCC(=O)[O-])[C@H]1CC[C@H]2[C@@H]3[C@H](O)C[C@@H]4C[C@H](O)CC[C@]4(C)[C@H]3CC[C@]12C.[Na+] [Form S8, sodium chenodeoxycholate]

XRPD form after storage ([4]; ASDS04 precipitate in water/acetonitrile, stored at RT 22 days): remained unchanged
Compound: C[C@H](CCC(=O)[O-])[C@H]1CC[C@H]2[C@@H]3[C@H](O)C[C@@H]4C[C@H](O)CC[C@]4(C)[C@H]3CC[C@]12C.[Na+] [Form S9-a, sodium chenodeoxycholate]

XRPD form after storage ([4]; ASDS19 precipitate in TFE/MTBE, stored at RT for 22 days): transformed into Form S15
Compound: C[C@H](CCC(=O)[O-])[C@H]1CC[C@H]2[C@@H]3[C@H](O)C[C@@H]4C[C@H](O)CC[C@]4(C)[C@H]3CC[C@]12C.[Na+] [Form S12, sodium chenodeoxycholate]

XRPD form after storage ([4]; ASDS16 precipitate in TFE/DIPE, stored at RT for 22 days): remained unchanged
Compound: C[C@H](CCC(=O)[O-])[C@H]1CC[C@H]2[C@@H]3[C@H](O)C[C@@H]4C[C@H](O)CC[C@]4(C)[C@H]3CC[C@]12C.[Na+] [Form S13, sodium chenodeoxycholate]

XRPD form after storage ([4]; RAS36 precipitate in TFE/MTBE, stored at RT for 2 weeks): transformed into Form S14
Compound: C[C@H](CCC(=O)[O-])[C@H]1CC[C@H]2[C@@H]3[C@H](O)C[C@@H]4C[C@H](O)CC[C@]4(C)[C@H]3CC[C@]12C.[Na+] [Form S15, sodium chenodeoxycholate]
